Laboratory results published in BindingDB's records for PubMed 9584223 (University of Bath, 1998).
Several values for one entry are separate records, joined by “and”; a condition that tells them apart may be missing. Identical values can stand only once.

Target: Neuronal acetylcholine receptor subunit alpha-4 (Homo sapiens, UniProt P43681)
Sequence (P43681 whole entry): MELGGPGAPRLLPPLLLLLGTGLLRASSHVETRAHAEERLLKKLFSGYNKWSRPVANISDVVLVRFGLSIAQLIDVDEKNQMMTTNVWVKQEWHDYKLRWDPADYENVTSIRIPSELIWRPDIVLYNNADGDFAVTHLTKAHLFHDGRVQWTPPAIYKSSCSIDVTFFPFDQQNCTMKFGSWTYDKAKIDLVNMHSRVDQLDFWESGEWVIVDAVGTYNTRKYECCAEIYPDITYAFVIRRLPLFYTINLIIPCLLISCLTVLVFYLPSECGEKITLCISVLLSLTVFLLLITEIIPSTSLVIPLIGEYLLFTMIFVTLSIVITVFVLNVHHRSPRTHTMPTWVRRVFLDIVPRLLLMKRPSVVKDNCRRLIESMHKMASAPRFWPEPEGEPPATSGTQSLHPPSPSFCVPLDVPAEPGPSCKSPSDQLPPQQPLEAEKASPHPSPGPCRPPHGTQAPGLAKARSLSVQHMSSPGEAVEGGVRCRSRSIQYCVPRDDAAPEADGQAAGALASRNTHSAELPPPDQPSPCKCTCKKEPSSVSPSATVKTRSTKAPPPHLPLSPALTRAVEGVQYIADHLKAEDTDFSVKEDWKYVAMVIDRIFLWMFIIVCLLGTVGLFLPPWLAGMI

SMILES	Ki
O=c1cccc2n1C[C@H]1CNC[C@H]2C1 [(1S,9R)-7,11-diazatricyclo[7.3.1.0~2,7~]trideca-2,4-dien-6-one]	17 nM and 3.3 nM
CNC1(C)C2CCC(C2)C1(C)C (stereo unspecified) [Methyl-(2,3,3-trimethyl-bicyclo[2.2.1]hept-2-yl)-amine(Mecamylamine)]	> 10000 nM
COc1cc2c3cc1Oc1cc(ccc1O)C[C@H]1c4c(cc(OC)c(O)c4Oc4ccc(cc4)C[C@@H]3N(C)CC2)CC[N+]1(C)C [CAS_57-94-3]	1000 nM and > 10000 nM
CCN1C[C@]2(COC(=O)c3ccccc3-n3c(O)cc(C)c3O)CC[C@H](OC)[C@]34C5C[C@@H]6[C@@H](OC)C[C@@](O)(C5[C@H]6OC)[C@@](O)(C13)[C@@H](OC)C24 (stereo partly drawn) [[(1S,4S,5R,6S,8R,9R,13S,16S,18S)-11-ethyl-8,9-dihydroxy-4,6,16,18-tetramethoxy-11-azahexacyclo[7.7.2.1^{2,5}.0^{1,10}.0^{3,8}.0^{13,17}]nonadecan-13-yl]methyl 2-[(3S)-3-methyl-2,5-dioxopyrrolidin-1-yl]benzoate]	6100 nM and 1600 nM
C[N+](C)(C)CCCCCC[N+](C)(C)C [Hexamethoniumdibromide]	> 10000 nM
Cc1cc([C@@H]2CCCN2C)on1 [ABT-418]	1.7 nM
